Entries after “also recorded” stand apart in the source; their conditions may differ.

For this test, the system named is microorganisms. The test can be described thus: Targeting peptide binding to target microorganisms (Tables 3, 10, 12). The settings on record: microorganism(s) the targeting peptide binds; binding in aqueous buffers varied with peptide solubility, preferably 1x PBS.
On to “PF-134 (GKAMKRQDCSAL; Peptide with targeting and/or antimicrobial activity)”, for which the “Target(s)” value is reported as “S. epidermidis; also recorded: C. jeikeium”.
In the case of “PF-138 (AVHHSLLFR; Peptide with targeting and/or antimicrobial activity)” it was “S. epidermidis and M. luteus and P. mirabilis and E. coli and C. albicans and MRSA and C. jeikeium and C. jejuni”.
In the case of “PF-141 (VVRRFQGM; Peptide with targeting and/or antimicrobial activity)” it was “S. epidermidis and M. luteus and C. albicans and MRSA and C. jeikeium”; in that of “PF-142 (GIDRGCQAAR; Peptide with targeting and/or antimicrobial activity)”, “S. mutans”.
The same measure for “PF-146 (GCGKRRIITKSASRDTR; Peptide with targeting and/or antimicrobial activity)”: “S. epidermidis and M. luteus and P. aeruginosa and C. albicans and MRSA and C. jeikeium”; for “PF-147 (RRPRRRRSGHGQSASAA; Peptide with targeting and/or antimicrobial activity)”: “S. epidermidis and M. luteus and MRSA”.
As for “PF-150 (EIQAKGTG; Peptide with targeting and/or antimicrobial activity)”, the “Target(s)” value is “S. epidermidis and MRSA”.
The same measure for “PF-151 (EEYPARVPLSGEDVTEARRH; Peptide with targeting and/or antimicrobial activity)”: “S. epidermidis and MRSA and E. faecalis and C. jeikeium”; for “PF-152 (VGYFIWKDSHSRKG; Peptide with targeting and/or antimicrobial activity)”: “S. epidermidis and C. albicans and MRSA and E. faecalis and C. jeikeium”.
In the case of “PF-154 (GIKKSKHPSTDDYVVKTTIDSL; Peptide with targeting and/or antimicrobial activity)” it was “S. mutans”; in that of “PF-155 (GRYGDDSKERQGRAQ; Peptide with targeting and/or antimicrobial activity)”, “C. jeikeium”; in that of “PF-158 (VRLESRPADLPE; Peptide with targeting and/or antimicrobial activity)”, “S. epidermidis”.
With “PF-159 (TMAFVEKAQLRVPVGDDLPV; Peptide with targeting and/or antimicrobial activity)”, the “Target(s)” value is reported as “S. epidermidis”.
In the case of “PF-160 (SFHASLTKNEKPIKSTG; Peptide with targeting and/or antimicrobial activity)” it was “S. epidermidis”; in that of “PF-161 (RGRALASTATTRPARRRR; Peptide with targeting and/or antimicrobial activity)”, “S. epidermidis; also recorded: M. luteus; also recorded: E. coli; also recorded: C. jejuni”.
In the case of “PF-162 (GIRRLHSVENLNREISHRMAGLR; Peptide with targeting and/or antimicrobial activity)” it was “S. epidermidis and MRSA”; in that of “PF-163 (TSWLRAAERQEIGEPTKTFGEKTTSL; Peptide with targeting and/or antimicrobial activity)”, “S. epidermidis”; in that of “PF-165 (GPVSVVASLRRGTTVQRHSQNNHNKGKP; Peptide with targeting and/or antimicrobial activity)”, “MRSA and C. jejuni”.
Take “PF-166 (SKAVSRKRSI; Peptide with targeting and/or antimicrobial activity)”: the “Target(s)” value is reported as “E. coli; also recorded: C. jeikeium”.
In the case of “PF-169 (APGSAADSPRSRADD; Peptide with targeting and/or antimicrobial activity)” it was “S. epidermidis; also recorded: E. coli; also recorded: C. albicans; also recorded: E. faecalis; also recorded: C. jeikeium”; in that of “PF-172 (LTGVRRPWRAPWAGTSGWALR; Peptide with targeting and/or antimicrobial activity)”, “S. epidermidis and M. luteus and E. coli and P. aeruginosa and MRSA and E. faecalis and C. jejuni”; in that of “PF-174 (RGGDSPARRRPGLAGPGGPG; Peptide with targeting and/or antimicrobial activity)”, “S. epidermidis; also recorded: P. aeruginosa; also recorded: C. jeikeium”.
In the case of “PF-177 (VTSEPGIAHDIRLLPRAAAFR; Peptide with targeting and/or antimicrobial activity)” it was “M. luteus and MRSA and E. faecalis and C. jeikeium”.
The same measure for “PF-181 (GIAPRRNEWGAVGGR; Peptide with targeting and/or antimicrobial activity)”: “S. epidermidis and M. luteus and E. coli and MRSA and E. faecalis and C. jeikeium”; for “PF-182 (LPATRDKTRVPASVAGAP; Peptide with targeting and/or antimicrobial activity)”: “S. epidermidis; also recorded: M. luteus; also recorded: E. coli; also recorded: E. faecalis; also recorded: C. jeikeium”.
For “PF-183 (KPGISVENRQ; Peptide with targeting and/or antimicrobial activity)”, the “Target(s)” value is “S. epidermidis and M. luteus and E. coli and C. albicans and MRSA and E. faecalis and C. jeikeium”.
In the case of “PF-184 (LIADRHIRA; Peptide with targeting and/or antimicrobial activity)” it was “S. epidermidis and M. luteus and E. coli and P. aeruginosa and C. albicans and MRSA and C. jeikeium”.
As to “PF-185 (RPAQARQGPGGLIADRHIRA; Peptide with targeting and/or antimicrobial activity)”, the “Target(s)” value was “E. coli; also recorded: P. aeruginosa”.
As for “PF-187 (EIQKIAKGVSGQVYGPSRQITISKKR; Peptide with targeting and/or antimicrobial activity)”, the “Target(s)” value was “S. epidermidis and M. luteus and E. coli and MRSA”.
On to “PF-189 (GNLTRSREAARATQ; Peptide with targeting and/or antimicrobial activity)”, for which the “Target(s)” value is “S. epidermidis and M. luteus and C. albicans and MRSA and E. faecalis and C. jejuni”.
On to “PF-193 (PPHCPPGHAKKGWC; Peptide with targeting and/or antimicrobial activity)”, for which the “Target(s)” value is “S. epidermidis and M. luteus and E. coli and MRSA and E. faecalis and C. jejuni”.
On to “PF-194 (MKGNKLATAHEQPVKNSAPPL; Peptide with targeting and/or antimicrobial activity)”, for which the “Target(s)” value was “C. jeikeium”.
For the substance “PF-195 (EMAEGSADDRLRKTPRDC; Peptide with targeting and/or antimicrobial activity)”, the “Target(s)” value is “S. epidermidis; also recorded: M. luteus; also recorded: E. faecalis; also recorded: C. jeikeium”.
For the substance “PF-197 (CNALLRRGHPPSAL; Peptide with targeting and/or antimicrobial activity)”, the “Target(s)” value was “S. epidermidis; also recorded: M. luteus; also recorded: C. albicans; also recorded: E. faecalis; also recorded: C. jejuni”.
The same measure for “PF-200 (GIELKSLIMAQIERWRQA; Peptide with targeting and/or antimicrobial activity)”: “S. epidermidis and M. luteus and MRSA and E. faecalis and C. jeikeium”.
